Test [1] deals with T1, B-Raf(V600E) kinase (Homo sapiens, UniProt P15056, V600E).
T1 construct: purchased Upstate Biotechnology
Put plainly: B-Raf(V600E) kinase assay ([33P] incorporation into MEK1(K97R)). Particulars: class symbols; 8 μM ATP; read-out: IC50 against B-Raf(V600E) kinase. The class given is biochemical. The method, boiled down: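 Recombinant B-Raf(V600E) (5 ng) phosphorylating MEK1(K97R) (500 ng) with 8 μM ATP plus [33P]ATP in Tris/HCl pH 7.5 buffer, 30 min at 30 °C. Acid-stopped reactions were filter-captured and counted by scintillation; IC50 from 3-fold serial dilutions run in duplicate.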

The target of test [2] is T2, C-Raf kinase (Homo sapiens, UniProt P04049).
T2 construct: purchased Upstate Biotechnology
T2 sequence (P04049 whole entry): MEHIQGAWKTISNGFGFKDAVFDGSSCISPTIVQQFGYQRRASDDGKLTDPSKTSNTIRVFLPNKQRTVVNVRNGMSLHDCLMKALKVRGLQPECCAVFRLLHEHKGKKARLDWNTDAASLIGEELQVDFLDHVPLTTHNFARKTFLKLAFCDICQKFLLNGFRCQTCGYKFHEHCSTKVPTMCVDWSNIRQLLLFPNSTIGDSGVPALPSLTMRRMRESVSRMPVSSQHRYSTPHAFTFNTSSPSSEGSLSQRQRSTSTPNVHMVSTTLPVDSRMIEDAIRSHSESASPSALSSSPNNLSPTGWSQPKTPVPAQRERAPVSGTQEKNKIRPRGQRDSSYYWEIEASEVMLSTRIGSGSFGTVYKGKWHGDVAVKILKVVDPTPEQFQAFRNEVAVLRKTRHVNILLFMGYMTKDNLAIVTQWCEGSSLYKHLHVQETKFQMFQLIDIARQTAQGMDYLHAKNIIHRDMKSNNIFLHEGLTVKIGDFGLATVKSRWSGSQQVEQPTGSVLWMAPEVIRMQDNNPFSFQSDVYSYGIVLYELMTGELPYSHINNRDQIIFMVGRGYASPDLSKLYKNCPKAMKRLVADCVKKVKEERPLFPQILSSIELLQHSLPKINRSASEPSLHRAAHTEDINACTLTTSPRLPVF
Briefly: C-Raf kinase assay ([33P] incorporation into MEK1(K97R)). The class given is biochemical. The settings on record: class symbols; 8 μM ATP; read-out: IC50 against C-Raf kinase. In outline:
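Recombinant C-Raf (2 ng) phosphorylated MEK1(K97R) (500 ng) with 8 μM ATP plus [33P]ATP in Tris pH 7.5 buffer for 30 min at 30 °C. Reactions were stopped with phosphoric acid, filtered and counted by scintillation. IC50 values came from 3-fold serial dilutions run in duplicate.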

The target in test [3] is T3, VEGFR2 kinase (Homo sapiens, UniProt P35968).
T3 construct: VEGFR2 kinase domain alone, Millipore; purchased Millipore
T3 sequence (P35968 834-1162 limits assumed): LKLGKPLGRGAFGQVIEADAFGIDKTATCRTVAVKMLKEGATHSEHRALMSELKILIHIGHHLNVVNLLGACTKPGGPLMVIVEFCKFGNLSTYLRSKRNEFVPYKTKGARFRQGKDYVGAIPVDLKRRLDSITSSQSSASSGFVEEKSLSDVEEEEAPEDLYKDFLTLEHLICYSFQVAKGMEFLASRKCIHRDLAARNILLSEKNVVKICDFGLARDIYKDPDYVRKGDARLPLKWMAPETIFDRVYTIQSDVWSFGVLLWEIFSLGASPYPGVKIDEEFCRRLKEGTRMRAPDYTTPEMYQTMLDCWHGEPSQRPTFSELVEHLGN
Put plainly: VEGFR2 radiometric kinase assay. The settings on record: given as bound; 100 μM ATP; read-out: Inhibition activity, IC50 VEGFR2. The test is classed as biochemical. In outline:
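Recombinant human VEGFR2 kinase domain (6.25 ng) phosphorylating poly(Glu-Tyr) 4:1 with 100 μM ATP plus [33P]ATP, in MOPS buffer pH 7.0, for 30 min at 30° C. Phosphoric-acid-stopped reactions were filter-captured and counted by scintillation for inhibition and IC50.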

The target of test [4] is T4, B-Raf kinase (Homo sapiens, UniProt P15056).
T4 construct: purchased Upstate Biotechnology
T4 sequence (P15056 whole entry): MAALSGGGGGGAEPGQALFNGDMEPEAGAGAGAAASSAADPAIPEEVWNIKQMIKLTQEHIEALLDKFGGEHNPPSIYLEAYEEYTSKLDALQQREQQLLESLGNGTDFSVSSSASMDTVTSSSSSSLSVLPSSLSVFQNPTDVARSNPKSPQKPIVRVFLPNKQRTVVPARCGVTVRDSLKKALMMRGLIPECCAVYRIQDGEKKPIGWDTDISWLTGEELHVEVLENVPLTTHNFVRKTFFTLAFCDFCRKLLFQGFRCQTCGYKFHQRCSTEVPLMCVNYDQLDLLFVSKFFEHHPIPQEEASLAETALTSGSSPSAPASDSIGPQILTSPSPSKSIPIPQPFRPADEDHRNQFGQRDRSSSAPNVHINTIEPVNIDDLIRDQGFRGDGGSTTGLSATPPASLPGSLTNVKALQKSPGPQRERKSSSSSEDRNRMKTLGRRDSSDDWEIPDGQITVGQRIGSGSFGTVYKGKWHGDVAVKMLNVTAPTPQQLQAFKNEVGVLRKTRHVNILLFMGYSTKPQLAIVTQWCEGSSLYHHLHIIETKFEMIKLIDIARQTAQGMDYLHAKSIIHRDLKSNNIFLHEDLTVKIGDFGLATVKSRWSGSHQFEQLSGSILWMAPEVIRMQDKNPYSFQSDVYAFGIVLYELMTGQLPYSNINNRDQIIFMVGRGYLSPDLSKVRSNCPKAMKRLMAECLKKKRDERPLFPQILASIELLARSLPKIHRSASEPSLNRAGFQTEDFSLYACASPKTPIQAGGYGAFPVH
Put plainly: B-Raf kinase assay ([33P] incorporation into MEK1(K97R)). The test is classed as biochemical. The settings on record: class symbols; 8 μM ATP; read-out: IC50 against B-Raf kinase. The method, boiled down:
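Recombinant B-Raf (5 ng) phosphorylating 500 ng MEK1(K97R) with 8 μM ATP plus [33P]ATP, pH 7.5 Tris buffer, 30 min at 30 °C. Radiolabel incorporation counted by filter-binding scintillation; IC50 from 3-fold serial dilutions run in duplicate.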

Test [5] deals with A375 melanoma cells and COLO205 colon cancer cells. Put plainly: Cell proliferation assay (CellTiter-96). The test is classed as cell-based. Particulars: Homo sapiens; A375 or COLO205, 72 hours treatment; read-out: Cytotoxicity IC50 for A375 or COLO205. In outline: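 B-Raf(V600E) mutant A375 and COLO205 cells in DMEM with 10% FCS, plated 24 h, then given varying compound concentrations for 72 h at 37 °C. Viability by CellTiter-96 Aqueous One reagent (4 h), absorbance at 490 nm.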

Test [6] has as its target T5, EGFR kinase (Homo sapiens, UniProt P00533).
T5 construct: EGFR kinase domain alone, Millipore; purchased Millipore
Briefly: EGFR radiometric kinase assay. Particulars: 100 μM ATP, read-out: Inhibition activity, IC50 EGFR. The class given is biochemical. In outline: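 Recombinant EGFR kinase domain (25 ng) with poly(Glu-Tyr) substrate in pH 7.0 MOPS buffer with 10 mM MnCl2, 100 μM ATP plus [^33P]ATP. Reaction 30 min at 30 °C, stopped with phosphoric acid; filter-bound radioactivity counted by scintillation.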

Like-named read-outs stand apart in the source and are kept apart here. A value given as a limit tells only on which side of the number the result lay.

T1 sequence (P15056 whole entry V600E): as the sequence (P15056 whole entry) above, with V600E counted along it
T5 sequence (P00533 712-979 limits assumed): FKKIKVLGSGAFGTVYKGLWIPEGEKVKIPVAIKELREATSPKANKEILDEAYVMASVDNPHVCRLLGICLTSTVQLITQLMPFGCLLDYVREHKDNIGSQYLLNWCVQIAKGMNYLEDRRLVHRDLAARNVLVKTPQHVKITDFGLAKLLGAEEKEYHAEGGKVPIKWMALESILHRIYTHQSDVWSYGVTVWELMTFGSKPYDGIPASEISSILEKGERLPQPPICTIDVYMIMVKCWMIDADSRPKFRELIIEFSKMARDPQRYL

For `O=S(=O)(CCCF)Nc1ccc(F)c(Nc2ncnc3ccc(-c4cccnc4F)cc23)c1F` [compound 44, N-(2,4-difluoro-3-(6-(2-fluoropyridin-3-yl)quinazolin-4-ylamino)phenyl)-3-fluoropropane-1-sulfonamide], the IC50 is less than 300 nM in test [1]; less than 300 nM in test [2]; more than 3000 nM in test [3]; less than 300 nM in test [4]; less than 2000 nM in test [5]; more than 3000 nM in test [6] (given as bound).

As for `CCCS(=O)(=O)Nc1ccc(F)c(Nc2ncnc3cc(F)c(-c4ccncc4)cc23)c1F` [compound 15, N-(2,4-difluoro-3-(7-fluoro-6-(pyridin-4-yl)quinazolin-4-ylamino)phenyl)propane-1-sulfonamide], the IC50 in test [1] is less than 300 nM; in test [2], less than 300 nM; in test [3], more than 3000 nM; in test [4] it was less than 300 nM; in test [5] it was less than 2000 nM; in test [6] (class symbols) it was 1000 to 3000 nM.

Regarding `CCCS(=O)(=O)Nc1ccc(F)c(Nc2ncnc3ccc(-c4cccc(OCCN(C)C)n4)cc23)c1F` [compound 39, N-(3-(6-(6-(2-(dimethylamino)ethoxy)-pyridin-2-yl)quinazolin-4-ylamino)-2,4-difluorophenyl)propane-1-sulfonamide], the IC50 in test [1] was less than 300 nM; in test [2] it was 1000 to 10000 nM; in test [3], more than 3000 nM; in test [4] it was less than 300 nM; in test [5], less than 2000 nM; in test [6] (given as bound), more than 3000 nM.

As for `O=S(=O)(Nc1ccc(F)c(Nc2ncnc3ccc(-c4cccnc4F)cc23)c1F)c1ccccc1` [compound 21, N-(2,4-difluoro-3-(6-(2-fluoropyridin-3-yl)quinazolin-4-ylamino)phenyl)benzenesulfonamide], the IC50 in test [1] is less than 300 nM; in test [2] it was less than 300 nM; in test [3] it was more than 3000 nM; in test [4] it was less than 300 nM; in test [5] it was less than 2000 nM; in test [6] (class symbols), 1000 to 3000 nM.

Turning to `CCCS(=O)(=O)Nc1ccc(F)c(Nc2ncnc3ccc(-c4ccc(OC)nc4)cc23)c1F` [compound 27, N-(2,4-difluoro-3-(6-(6-methoxypyridin-3-yl)quinazolin-4-ylamino)phenyl)propane-1-sulfonamide], the IC50 was less than 300 nM in test [1]; less than 300 nM in test [2]; more than 3000 nM in test [3]; 300 to 1000 nM in test [4]; less than 2000 nM in test [5]; 1000 to 3000 nM in test [6] (class symbols).

Consider `CCCS(=O)(=O)Nc1ccc(F)c(Nc2ncnc3cc(OC)c(-c4cccnc4F)cc23)c1F` [compound 28, N-(2,4-difluoro-3-(6-(2-fluoropyridin-3-yl)-7-methoxyquinazolin-4-ylamino)phenyl)propane-1-sulfonamide], for which the IC50 in test [1] is less than 300 nM; in test [2] it was less than 300 nM; in test [3] it was more than 3000 nM; in test [4], less than 300 nM; in test [5], less than 2000 nM; in test [6] (class symbols) it was 300 to 1000 nM.

Consider `CCCS(=O)(=O)Nc1ccc(F)c(Nc2ncnc3ccc(-c4ccc(N5CCOCC5)nc4)cc23)c1F` [compound 2, N-(2,4-difluoro-3-(6-(6-morpholinopyridin-3-yl)quinazolin-4-ylamino)phenyl)propane-1-sulfonamide], for which the 50% inhibitory concentration (IC50) in test [1] was less than 300 nM; in test [2], less than 300 nM; in test [3] it was more than 3000 nM; in test [4], less than 300 nM; in test [5], less than 2000 nM; in test [6] (class symbols), 1000 to 3000 nM.

Values taken from US9321762B2, “Quinazoline compounds, method for preparing the same and use thereof” (DEVELOPMENT CENTER FOR BIOTECHNOLOGY, priority 2013, dated 2016).
